Where a name gives a salt, the structure may show the parent alone. A value given as a limit tells only on which side of the number the result lay.

One assay deals with experimental autoimmune encephalomyelitis (EAE). Briefly: Experimental autoimmune encephalomyelitis (EAE) animal model. In kind it is in vivo, C57BL/6 mice. As to conditions: dosed at 60 mg/kg beginning on the day of immunization.
For the compound `COC(=O)/C=C/n1nn[nH]c1=O` [methyl (E)-3-(5-oxo-4,5-dihydro-1H-tetrazol-1-yl)acrylate], the “onset of disease paralysis” value was “significantly prevents”.

Test system in a further assay: not listed separately
Briefly: Glutathione depletion assay (Michael reaction with reduced glutathione followed by 1H NMR). As to conditions: 2 equiv. reduced glutathione, d6-DMSO, 35° C. From the text: See, for example, Lehmann et al. Dimethyfumarate Induces Immunosuppression via Glutathione Depletion and Subsequent Induction of Heme Oxygenase 1, Journal of Investigative Dermatology (2007) 127, 835-845. Accordingly, the present compounds may be assessed in vitro by reaction with glutathione as follows:
(with the top securely fastened).
In all the above cases, dis-appearance of the alkene proton signals from the starting material are used to determine the extent of Michael reaction with glutathione.
As would be understood by those of skill in the art, the above experiments can be repeated by varying the equivalents of reduced glutathione (0.5 to 2 equivalents); the reactions can also be run in a mixture of d6-DMSO and D2O; and the temperature of the reaction can also be varied from room temperature to 35° C. (35° C. being used to mimic body temperature). As used herein “majority reaction” means a greater than 50% reduction in alkene proton signal as observed by ^1H NMR.
On to `COC(=O)/C=C/n1nnn(C)c1=O` [methyl (E)-3-(4-methyl-5-oxo-4,5-dihydro-1H-tetrazol-1-yl)acrylate], for which the “time to majority reaction with glutathione (greater than 50% reduction in alkene proton signal by 1H NMR)” value is not above 30 h.
`COC(=O)/C=C/n1nn[nH]c1=O` [methyl (E)-3-(5-oxo-4,5-dihydro-1H-tetrazol-1-yl)acrylate]: the “time to majority reaction with glutathione (greater than 50% reduction in alkene proton signal by 1H NMR)” value was not above 30 h.

Another assay concerns NrF2 (Nuclear factor (erythroid-derived 2)-like 2). Put plainly: NrF2 activation in a whole cell nuclear translocation assay. The format is cell-based. As to conditions: read-out: NrF2 translocation assay EC50; whole cell nuclear translocation; Table 2. As to the method:
NrF2 Activation in a Whole Cell Nuclear Translocation Assay
Compounds were tested in a NrF2 (Nuclear factor (erythroid-derived 2)-like 2) translocation assay by adapting the methods set forth in U.S. Pat. No. 8,101,373, the disclosure of which is incorporated herein by reference.
Broadly, the EC50 is the concentration at which the effect is half-maximal. Take `CS(=O)(=O)/C=C/n1nnn(-c2cccnc2)c1=O` [Compound 3, (E)-1-(2-(methylsulfonyl)vinyl)-4-(pyridin-3-yl)-1,4-dihydro-5H-tetrazol-5-one]: the EC50 was 120 nM.
Still for that read-out and setting: for `CS(=O)(=O)/C=C/C(=O)O` [Compound 15, (E)-3-(methylsulfonyl)acrylic Acid] the value was 44800 nM.

The assay is the same for the next values; noted with them: reference fumarates; read-out: NrF2 activation EC50.
For `COC(=O)/C=C/C(=O)O` [Monomethyl fumarate, reference compound], the EC50 was approximately 127000 nM.
On the same count and under the same terms, then `COC(=O)/C=C/C(=O)OC` [dimethyl fumarate, reference compound], with approximately 7900 nM.

The same assay, now with this note: whole cell nuclear translocation; Table 2; read-out: NrF2 translocation assay EC50.
Regarding `Cc1ccc(S(=O)(=O)/C=C/n2nnn(-c3cccnc3)c2=O)cc1` [Compound 1, (E)-1-(pyridin-3-yl)-4-(2-tosylvinyl)-1,4-dihydro-5H-tetrazol-5-one], the EC50 worked out at 290 nM.
Still for that read-out and setting: for `COC(=O)/C=C/S(=O)(=O)c1ccc(NC(C)=O)cc1` [Compound 4] the value was 750 nM; for `COC(=O)/C=C/S(C)(=O)=O` [Compound 5], 1000 nM.
Still for that read-out and setting: for `COC(=O)/C=C\S(=O)(=O)c1ccc(F)cc1` [Compound 6] the value was 790 nM.
The same measure, in the same setting: then `CCOC(=O)/C=C/S(=O)(=O)c1ccccc1` [Compound 7], with less than 390 nM; and `COC(=O)/C=C/S(=O)(=O)c1ccc(Br)cc1` [Compound 8], with less than 390 nM.
Take `COC(=O)/C=C/S(=O)(=O)c1ccc2ccccc2c1` [Compound 9]: the EC50 is less than 390 nM.
The same measure, in the same setting: then `CCn1nnn(/C=C/S(=O)(=O)c2ccc(C)cc2)c1=O` [Compound 16, (E)-1-ethyl-4-(2-tosylvinyl)-1,4-dihydro-5H-tetrazol-5-one], with 190 nM.
The same measure, in the same setting: then `Cc1ccc(S(=O)(=O)/C=C/n2nnn(Cc3ccccc3)c2=O)cc1` [Compound 17, (E)-1-benzyl-4-(2-tosylvinyl)-1,4-dihydro-5H-tetrazol-5-one], with 170 nM; and `Cn1nnn(/C=C/S(=O)(=O)c2ccc(F)cc2)c1=O` [Compound 18, (E)-1-(2-((4-fluorophenyl)sulfonyl)vinyl)-4-methyl-1,4-dihydro-5H-tetrazol-5-one], with 200 nM.
For `O=c1n(/C=C/S(=O)(=O)c2ccc(F)cc2)nnn1-c1cccnc1` [Compound 19, (E)-1-(2-((4-fluorophenyl)sulfonyl)vinyl)-4-(pyridin-3-yl)-1,4-dihydro-5H-tetrazol-5-one], the half-maximal effective concentration (EC50) is 30 nM.

The record behind these values is patent US11279686B2, “Nrf2 activating compounds and uses thereof” (Rigel Pharmaceuticals, Inc., priority 2016, dated 2022).
